The test deals with T1, Human pyruvate kinase R (PKR) (Homo sapiens, UniProt P30613).
T1 construct: Human pyruvate kinase R (PKR), residues 14-574; 6x-His (N, cleaved yes); 8x-Arg (N, cleaved yes); SUMO (N, cleaved yes); host or cells: E. coli
T1 sequence (P30613 14-574): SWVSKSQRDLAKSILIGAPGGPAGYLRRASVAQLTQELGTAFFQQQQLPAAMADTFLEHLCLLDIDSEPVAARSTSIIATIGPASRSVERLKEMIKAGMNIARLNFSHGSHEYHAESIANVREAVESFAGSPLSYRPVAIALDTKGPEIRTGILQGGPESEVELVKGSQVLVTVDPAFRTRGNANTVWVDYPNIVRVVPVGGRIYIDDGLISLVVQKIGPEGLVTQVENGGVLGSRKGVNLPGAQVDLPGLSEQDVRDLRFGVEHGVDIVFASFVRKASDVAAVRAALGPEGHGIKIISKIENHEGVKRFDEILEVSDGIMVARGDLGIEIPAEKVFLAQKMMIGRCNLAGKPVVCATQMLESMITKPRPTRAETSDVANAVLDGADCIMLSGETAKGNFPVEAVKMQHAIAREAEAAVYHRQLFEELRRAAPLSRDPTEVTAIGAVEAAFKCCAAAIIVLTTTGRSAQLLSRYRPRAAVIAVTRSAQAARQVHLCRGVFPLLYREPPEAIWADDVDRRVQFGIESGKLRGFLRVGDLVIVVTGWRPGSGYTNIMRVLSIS
Nature of the test: Biochemical assay for activation of pyruvate kinase R (Kinase-Glo luminescence, ATP generation). Particulars: 0.1 nM PKR, 2 mM FBP, 0.3 mM ADP, 0.1 mM PEP. The method, boiled down: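 E. coli-expressed human PKR, freed of its His-Arg-SUMO tag and purified by anion exchange and size exclusion, was tested for activation. Read-out was luminescent measurement of ATP generation with Kinase-Glo reagent.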
A word on the AC50: it is the concentration giving half of the maximal activity seen. Lower therefore signals activity at low concentration. Take `N[C@@H](C(=O)N1Cc2cn(S(=O)(=O)c3ccc4c(c3)OCCO4)nc2C1)c1ccccc1F` [Compound 58, (2R)-2-amino-1-[2-(2,3-dihydro-1,4-benzodioxine-6-sulfonyl)-2H,4H,5H,6H-pyrrolo[3,4-c]pyrazol-5-yl]-2-(2-fluorophenyl)ethan-1-one]: the activity was half-maximal at 25 nM (AC50).
The compound `Cc1ccccc1[C@@H](N)C(=O)N1Cc2cn(S(=O)(=O)c3ccc4ncsc4c3)nc2C1` [Compound 59, (2R)-2-amino-1-[2-(1,3-benzothiazole-6-sulfonyl)-2H,4H,5H,6H-pyrrolo[3,4-c]pyrazol-5-yl]-2-(2-methylphenyl)ethan-1-one] came in with a half-maximal activity concentration (AC50) of 48 nM.
In the case of `C[C@](N)(C(=O)N1Cc2cn(S(=O)(=O)c3ccc4ncsc4c3)nc2C1)c1ccccc1` [Compound 60, (2R)-2-amino-1-[2-(1,3-benzothiazole-6-sulfonyl)-2H,4H,5H,6H-pyrrolo[3,4-c]pyrazol-5-yl]-2-phenylpropan-1-one], the AC50 amounted to 77 nM.
`N[C@@H](C(=O)N1Cc2cn(S(=O)(=O)c3ccc4ncsc4c3)nc2C1)c1ccccc1Cl` [Compound 63, (2R)-2-amino-1-[2-(1,3-benzothiazole-6-sulfonyl)-2H,4H,5H,6H-pyrrolo[3,4-c]pyrazol-5-yl]-2-(2-chlorophenyl)ethan-1-one] returned an AC50 of 8.3 nM.
`N[C@@H](C(=O)N1Cc2cn(S(=O)(=O)c3ccc4occc4c3)nc2C1)c1ccccc1F` [Compound 64, (2R)-2-amino-1-[2-(1-benzofuran-5-sulfonyl)-2H,4H,5H,6H-pyrrolo[3,4-c]pyrazol-5-yl]-2-(2-fluorophenyl)ethan-1-one] showed an AC50 of 3.4 nM.
For `O=C([C@H](O)c1ccccc1Cl)N1Cc2cn(S(=O)(=O)c3ccc4ncsc4c3)nc2C1` [Compound 65, (2R)-1-[2-(1,3-benzothiazole-6-sulfonyl)-2H,4H,5H,6H-pyrrolo [3,4-c]pyrazol-5-yl]-2-(2-chlorophenyl)-2-hydroxyethan-1-one] the value was 6.2 nM.
Regarding `O=C([C@H](O)c1ccccc1Cl)N1Cc2cn(S(=O)(=O)c3ccc4cn[nH]c4c3)nc2C1` [Compound 67, (2R)-2-(2-chlorophenyl)-2-hydroxy-1-[2-(1H-indazole-6-sulfonyl)-2H,4H,5H,6H-pyrrolo[3,4-c]pyrazol-5-yl]ethan-1-one], half-maximal activity (AC50) was put at 29 nM.
In turn, `O=C([C@H](O)c1ccccc1F)N1Cc2cn(S(=O)(=O)c3ccc(OC(F)F)cc3)nc2C1` [Compound 72, (2R)-1-[2-[4-(difluoromethoxy)benzenesulfonyl]-4H,6H-pyrrolo[3,4-c]pyrazol-5-yl]-2-(2-fluorophenyl)-2-hydroxyethanone] registered an AC50 of 6 nM.
For `O=CN[C@H](C(=O)N1Cc2cn(S(=O)(=O)c3ccc(OC(F)F)cc3)nc2C1)c1ccccc1` [Compound 73, N-[(1S)-2-{2-[4-(difluoromethoxy)benzenesulfonyl]-2H,4H,5H,6H-pyrrolo[3,4-c]pyrazol-5-yl}-2-oxo-1-phenylethyl]formamide] the value was 13 nM; for `O=C(N1Cc2cn(S(=O)(=O)c3ccc(OC(F)F)cc3)nc2C1)C1(c2ncccc2Cl)COC1` [Compound 75, 3-chloro-2-(3-{2-[4-(difluoromethoxy)benzenesulfonyl]-2H,4H,5H,6H-pyrrolo[3,4-c]pyrazole-5-carbonyl}oxetan-3-yl)pyridine], 4.4 nM.
For `O=C([C@H](CO)c1ccccc1)N1Cc2cn(S(=O)(=O)c3cnc4c(c3)OCCO4)nc2C1` [Compound 76, (2S)-1-(2-{2H,3H-[1,4]dioxino[2,3-b]pyridine-7-sulfonyl}-2H,4H,5H,6H-pyrrolo[3,4-c]pyrazol-5-yl)-3-hydroxy-2-phenylpropan-1-one] the value was 6.9 nM.
Compound `COc1ccc(S(=O)(=O)n2cc3c(n2)CN(C(=O)[C@H](CO)c2ccccc2)C3)cn1` [Compound 77, (2S)-3-hydroxy-1-{2-[(6-methoxypyridin-3-yl)sulfonyl]-2H,4H,5H,6H-pyrrolo[3,4-c]pyrazol-5-yl}-2-phenylpropan-1-one] returned an AC50 of 8.3 nM.
`O=CN[C@@H](C(=O)N1Cc2cn(S(=O)(=O)c3ccc(OC(F)F)cc3)nc2C1)c1ccccc1F` [Compound 78, N-[(1R)-2-{2-[4-(difluoromethoxy)benzenesulfonyl]-2H,4H,5H,6H-pyrrolo[3,4-c]pyrazol-5-yl}-1-(2-fluorophenyl)-2-oxoethyl]formamide] yielded an AC50 of 4.7 nM.
For `O=C([C@H](CO)c1ccccc1F)N1Cc2cn(S(=O)(=O)c3ccc4ncsc4c3)nc2C1` [Compound 79, (2S)-1-[2-(1,3-benzothiazole-6-sulfonyl)-2H,4H,5H,6H-pyrrolo[3,4-c]pyrazol-5-yl]-2-(2-fluorophenyl)-3-hydroxypropan-1-one] the value was 4.9 nM.
For `O=C([C@H](CO)c1ccccc1F)N1Cc2cn(S(=O)(=O)c3cnc4c(c3)OCCO4)nc2C1` [Compound 80, (2S)-1-(2-{2H,3H-[1,4]dioxino[2,3-b]pyridine-7-sulfonyl}-2H,4H,5H,6H pyrrolo[3,4-c]pyrazol-5-yl)-2-(2-fluorophenyl)-3-hydroxypropan-1-one] the value was 2.1 nM; for `O=CN[C@@H](C(=O)N1Cc2cn(S(=O)(=O)c3ccc4ncsc4c3)nc2C1)c1ccccc1Cl` [Compound 81, N-[(1R)-2-[2-(1,3-benzothiazole-6-sulfonyl)-2H,4H,5H,6H-pyrrolo[3,4-c]pyrazol-5-yl]-1-(2-chlorophenyl)-2-oxoethyl]formamide], 3.8 nM; for `O=C([C@H](CO)c1ccccc1)N1Cc2cn(S(=O)(=O)c3ccc4ncccc4c3)nc2C1` [Compound 82, (2S)-3-hydroxy-2-phenyl-1-[2-(quinoline-6-sulfonyl)-2H,4H,5H,6H-pyrrolo[3,4-c]pyrazol-5-yl]propan-1-one], 5 nM.
For `O=C([C@H](CO)c1ccccc1)N1Cc2cn(S(=O)(=O)c3cccc(OC(F)F)c3)nc2C1` [Compound 83, (2S)-1-{2-[3-(difluoromethoxy)benzenesulfonyl]-2H,4H,5H,6H-pyrrolo[3,4-c]pyrazol-5-yl}-3-hydroxy-2-phenylpropan-1-one], the AC50 is 7.9 nM.
For the compound `O=C([C@H](CO)c1ccccc1F)N1Cc2cn(S(=O)(=O)c3ccc4occc4c3)nc2C1` [Compound 84, (2S)-1-[2-(1-benzofuran-5-sulfonyl)-2H,4H,5H,6H-pyrrolo[3,4-c]pyrazol-5-yl]-2-(2-fluorophenyl)-3-hydroxypropan-1-one], half-maximal activity (AC50) was put at 4.5 nM.
`O=C([C@H](CO)c1ccccc1F)N1Cc2cn(S(=O)(=O)c3ccc(OC(F)F)nc3)nc2C1` [Compound 85, (2S)-1-(2-[6-(difluoromethoxy)pyridin-3-yl]sulfonyl-2H,4H,5H,6H-pyrrolo[3,4-c]pyrazol-5-yl)-2-(2-fluorophenyl)-3-hydroxypropan-1-one] came in with a concentration at half-maximal activity (AC50) of 6.8 nM.
`O=C([C@H](CO)c1ccccc1Cl)N1Cc2cn(S(=O)(=O)c3cnc4occc4c3)nc2C1` [Compound 86, (2S)-2-(2-chlorophenyl)-1-(2-{furo[2,3-b]pyridine-5-sulfonyl}-2H,4H,5H,6H-pyrrolo[3,4-c]pyrazol-5-yl)-3-hydroxypropan-1-one]: half-maximal activity (AC50) was put at 1.8 nM.
Regarding `COc1ccc(S(=O)(=O)n2cc3c(n2)CN(C(=O)[C@H](CO)c2ccccc2F)C3)cc1` [Compound 88, (2S)-2-(2-fluorophenyl)-3-hydroxy-1-[2-(4-methoxybenzenesulfonyl)-2H,4H,5H,6H-pyrrolo[3,4-c]pyrazol-5-yl]propan-1-one], the activity was half-maximal at 3 nM (AC50).
`Cn1ncc2ccc(S(=O)(=O)n3cc4c(n3)CN(C(=O)[C@H](CO)c3ccccc3)C4)cc21` [Compound 90, (2S)-3-hydroxy-1-{2-[(1-methyl-1H-indazol-6-yl)sulfonyl]-2H,4H,5H,6H-pyrrolo[3,4-c]pyrazol-5-yl}-2-phenylpropan-1-one] came in with an AC50 of 430 nM.
As to `O=C([C@H](CO)c1ccccc1)N1Cc2cn(S(=O)(=O)c3ccc4c(cnn4C(F)F)c3)nc2C1` [Compound 91, (2S)-1-(2-{[1-(difluoromethyl)-1H-indazol-5-yl]sulfonyl}-2H,4H,5H,6H-pyrrolo[3,4-c]pyrazol-5-yl)-3-hydroxy-2-phenylpropan-1-one], the half-maximal activity concentration (AC50) came to 14 nM.
For `O=C([C@H](CO)c1ccccc1)N1Cc2cn(S(=O)(=O)c3ccc4nccnc4c3)nc2C1` [Compound 94, (2S)-3-hydroxy-2-phenyl-1-[2-(quinoxaline-6-sulfonyl)-2H,4H,5H,6H-pyrrolo[3,4-c]pyrazol-5-yl]propan-1-one], the activity was half-maximal at 17 nM (AC50).
As for `O=C([C@H](CO)c1ccccc1)N1Cc2cn(S(=O)(=O)c3ccc(OC4COC4)nc3)nc2C1` [Compound 95, (2S)-3-hydroxy-1-(2-{[6-(oxetan-3-yloxy)pyridin-3-yl]sulfonyl}-2H,4H,5H,6H-pyrrolo[3,4-c]pyrazol-5-yl)-2-phenylpropan-1-one], the half-maximal activity concentration (AC50) came to 7080 nM.
The compound `CN1Cc2cc(S(=O)(=O)n3cc4c(n3)CN(C(=O)[C@H](CO)c3ccccc3)C4)ccc2OC1=O` [Compound 96, 6-({5-[(2S)-3-hydroxy-2-phenylpropanoyl]-2H,4H,5H,6H-pyrrolo[3,4-c]pyrazol-2-yl}sulfonyl)-3-methyl-3,4-dihydro-2H-1,3-benzoxazin-2-one] displayed a half-maximal activity concentration (AC50) of 53 nM.
Consider `O=C([C@H](CO)c1ccccc1)N1Cc2cn(S(=O)(=O)c3ccc(OC4CC4)nc3)nc2C1` [Compound 97, (2S)-1-{2-[(6-cyclopropoxypyridin-3-yl)sulfonyl]-2H,4H,5H,6H-pyrrolo[3,4-c]pyrazol-5-yl}-3-hydroxy-2-phenylpropan-1-one], for which the AC50 is over 10000 nM.
In the case of `O=C([C@H](CO)c1ccccc1)N1Cc2cn(S(=O)(=O)c3ccc(C4CC4)nc3)nc2C1` [Compound 101, (2S)-1-{2-[(6-cyclopropylpyridin-3-yl)sulfonyl]-2H,4H,5H,6H-pyrrolo[3,4-c]pyrazol-5-yl}-3-hydroxy-2-phenylpropan-1-one] it was 41 nM.

The values above are taken from patent US20230159538A1, “PYRROLIDINE-PYRAZOLES AS PYRUVATE KINASE ACTIVATORS” (Global Blood Therapeutics, Inc., priority 2020, published 2023).
